# From patent US12371454B2, “Cyclic peptide compound having Kras inhibitory action” (priority 2019, dated 2025)
# Starred links: 1 amine or outer side, 2 acyl side, 3 side chain; linkers in the order of their positions; H or OH if unused. Positions of bridges follow the written chain, without caps; N, C: chain ends. Non-standard residues stand in square brackets, D forms with d. Residues, ends and D or L forms follow the SMILES beside them. *: point of attachment. hPhe(3-Cl-4-CF3) = N[C@@H](CCc1ccc(C(F)(F)F)c(Cl)c1)C(=O)O; NMeDab(N,N-(CH2CF2CH2)) = CN[C@@H](CCN1CC(F)(F)C1)C(=O)O; NEtPhe(4-CF3) = CCN[C@@H](Cc1ccc(C(F)(F)F)cc1)C(=O)O; NMePhe(2-CF3) = CN[C@@H](Cc1ccccc1C(F)(F)F)C(=O)O; hPhe(4-CF3) = N[C@@H](CCc1ccc(C(F)(F)F)cc1)C(=O)O; NMeAla(4-thiazolyl) = CN[C@@H](Cc1cscn1)C(=O)O; NMePhe(4-Cl) = CN[C@@H](Cc1ccc(Cl)cc1)C(=O)O; NMePhe(3-F) = CN[C@@H](Cc1cccc(F)c1)C(=O)O; NMePhe(4-F) = CN[C@@H](Cc1ccc(F)cc1)C(=O)O; NMedβ3hAla = C[C@H](CC(=O)[*:2])N(C)[*:1]; X22 = O=C([C@@H]1Cc2ccccc2N1[*:1])[*:2]; NMeGly(cPent) = CN[C@H](C(=O)O)C1CCCC1; Phe(3-I) = N[C@@H](Cc1cccc(I)c1)C(=O)O; Pro(4,4-F2) = O=C(O)[C@@H]1CC(F)(F)CN1; NMeY = CN[C@@H](Cc1ccc(O)cc1)C(=O)O; NMeCha = CN[C@@H](CC1CCCCC1)C(=O)O; NMehLeu = CN[C@@H](CCC(C)C)C(=O)O; NMeChg = CN[C@H](C(=O)O)C1CCCCC1; NMeF = CN[C@@H](Cc1ccccc1)C(=O)O; NMeI = CC[C@H](C)[C@H](NC)C(=O)O; N(CH2CH2)2CF2 = FC1(F)CCN(*)CC1; NMeD = CN[C@@H](CC(=O)O)C(=O)O; NMeL = CN[C@@H](CC(C)C)C(=O)O; NMeV = CN[C@H](C(=O)O)C(C)C; d(β3hA) = C[C@@H](N)CC(=O)O; Azetidin(1-yl) = C1CN(*)C1; dPip = O=C(O)[C@H]1CCCCN1; NMeA = CN[C@@H](C)C(=O)O; Nle = CCCC[C@H](N)C(=O)O; Piperidide = C1CCN(*)CC1; Pyrrolidide = C1CCN(*)C1; dNMeA = CN[C@H](C)C(=O)O; Ac5c = NC1(C(=O)O)CCCC1; Aze = O=C(O)[C@@H]1CCN1; Ac4c = NC1(C(=O)O)CCC1; CF3 = FC(F)(F)*; Sar = CNCC(=O)O; Propyl = CCC*
# Molecular target: T1, Kras and SOS1 (biotin-tagged human Kras loaded with GDP, His-tagged human SOS1) (Homo sapiens, UniProt P01116, G12D)
# T1 construct: made in house; host or cells: E. coli (stated for Kras only)
# Test: Protein-protein interaction inhibition between Kras and SOS1 (KrasGl2D-SOS PPI) using AlphaScreen
# Assay type: binding
# Conditions: AlphaScreen; biotin-tagged human Kras loaded with GDP, His-tagged human SOS1; read-out: KRAS G12D-SOS PPI IC50
# In short: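 AlphaScreen format: Ni donor beads capture His-SOS1, streptavidin acceptor beads capture biotinylated Kras (E. coli-expressed, GDP-loaded post-purification). Excite 680 nm, read 520-620 nm.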
# T1 sequence (P01116 1-188 isoform P01116-2 G12D): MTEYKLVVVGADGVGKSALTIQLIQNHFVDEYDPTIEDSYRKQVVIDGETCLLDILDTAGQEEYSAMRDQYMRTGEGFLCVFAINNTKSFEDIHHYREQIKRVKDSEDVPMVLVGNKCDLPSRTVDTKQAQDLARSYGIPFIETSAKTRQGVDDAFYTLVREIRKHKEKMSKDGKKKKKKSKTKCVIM
row,Compound,IC50
1,CC[C@H](C)[C@@H]1NC(=O)[C@H](CC(C)C)N(C)C(=O)C[C@@H](C(=O)N(C)C)N(C)C(=O)[C@H](C2CCCC2)N(C)C(=O)[C@H](C)NC(=O)[C@H](Cc2cscn2)N(C)C(=O)[C@H](CCc2ccc(C(F)(F)F)c(Cl)c2)NC(=O)CN(C)C(=O)[C@H](CC2CCCCC2)N(C)C(=O)[C@@H]2CCN2C(=O)[C@H](C)N(C)C1=O [Compound 805] ([NMeL]I[NMeA][Aze][NMeCha][Sar][hPhe(3-Cl-4-CF3)][NMeAla(4-thiazolyl)]A[NMeGly(cPent)][NMeD]-NMe2; lactam N-11),38 nM
2,CC[C@H](C)[C@@H]1NC(=O)[C@H](CCC(C)C)N(C)C(=O)C[C@@H](C(=O)N2CCC2)N(C)C(=O)[C@H](C2CCCC2)N(C)C(=O)C2(CCCC2)NC(=O)[C@@H]2CCCN2C(=O)[C@H](CCc2ccc(C(F)(F)F)c(Cl)c2)NC(=O)CN(C)C(=O)[C@H](CC2CCCCC2)N(C)C(=O)[C@@H]2CCN2C(=O)[C@H](C)N(C)C1=O [Compound 806] ([NMehLeu]I[NMeA][Aze][NMeCha][Sar][hPhe(3-Cl-4-CF3)]P[Ac5c][NMeGly(cPent)][NMeD]-{Azetidin(1-yl)}; lactam N-11),1.1 nM
3,CC[C@H](C)[C@@H]1NC(=O)[C@H](C)N(C)C(=O)C[C@@H](C(=O)N2CCCC2)NC(=O)[C@H](CC(C)C)N(C)C(=O)[C@H](Cc2ccccc2)N(C)C(=O)[C@H](CC(C)C)NC(=O)[C@H](CCc2ccc(C(F)(F)F)cc2)NC(=O)CN(C)C(=O)[C@H](Cc2ccc(Cl)cc2)N(C)C(=O)CN(C)C(=O)CNC1=O [Compound 808] ([NMeA]IG[Sar][NMePhe(4-Cl)][Sar][hPhe(4-CF3)]L[NMeF][NMeL]D-Pyrrolidide; lactam N-11),99 nM
4,CC[C@H](C)[C@@H]1NC(=O)[C@H](CC(C)C)N(C)C(=O)C[C@@H](C(=O)N2CCCCC2)N(C)C(=O)[C@H](C2CCCCC2)N(C)C(=O)C2(CCCC2)NC(=O)[C@@H]2Cc3ccccc3N2C(=O)[C@H](CCc2ccc(C(F)(F)F)c(Cl)c2)NC(=O)CN(C)C(=O)[C@H](CC2CCCCC2)N(C)C(=O)[C@@H]2CCN2C(=O)[C@H](C)N(C)C1=O [Compound 812] ([NMeL]I[NMeA][Aze][NMeCha][Sar][hPhe(3-Cl-4-CF3)][X22][Ac5c][NMeChg][NMeD]-Piperidide; lactam N-11),36 nM
5,CCCC[C@@H]1NC(=O)[C@H](Cc2cccc(I)c2)NC(=O)CN(C)C(=O)[C@H](Cc2ccc(Cl)cc2)N(C)C(=O)CN(C)C(=O)CN(C)C(=O)[C@H]([C@@H](C)CC)NC(=O)[C@H](CC(C)C)N(C)C(=O)C[C@@H](C(=O)N2CCCCC2)N(C)C(=O)[C@H](CC(C)C)NC(=O)[C@H](Cc2ccccc2C(F)(F)F)N(C)C1=O [Compound 813] ([NMeL]I[Sar][Sar][NMePhe(4-Cl)][Sar][Phe(3-I)][Nle][NMePhe(2-CF3)]L[NMeD]-Piperidide; lactam N-11),69 nM
6,"CCCOC[C@@H]1NC(=O)[C@H](CCN2CC(F)(F)C2)N(C)C(=O)[C@H](CCc2ccc(C(F)(F)F)c(Cl)c2)NC(=O)CN(C)C(=O)[C@H](CC2CCCCC2)N(C)C(=O)[C@@H]2CCN2C(=O)[C@H](C)N(C)C(=O)[C@H]([C@@H](C)CC)NC(=O)[C@H](CC(C)C)N(C)C(=O)C[C@@H](C(=O)N(C)C)N(C)C(=O)[C@H](C2CCCC2)N(C)C1=O [Compound 817] ([NMeL]I[NMeA][Aze][NMeCha][Sar][hPhe(3-Cl-4-CF3)][NMeDab(N,N-(CH2CF2CH2))]S(Propyl)[NMeGly(cPent)][NMeD]-NMe2; lactam N-11)",15 nM
7,CCCC[C@@H]1NC(=O)[C@H](Cc2cccc(I)c2)NC(=O)CN(C)C(=O)[C@H](Cc2ccc(Cl)cc2)N(C)C(=O)CN(C)C(=O)CN(C)C(=O)[C@H]([C@@H](C)CC)NC(=O)[C@H](CC(C)C)N(C)C(=O)C[C@@H](C(=O)N2CCCCC2)N(C)C(=O)[C@H](CC(C)C)NC(=O)[C@H](Cc2ccc(OC(F)(F)F)cc2)N(C)C1=O [Compound 819] ([NMeL]I[Sar][Sar][NMePhe(4-Cl)][Sar][Phe(3-I)][Nle][NMeY](CF3)L[NMeD]-Piperidide; lactam N-11),53 nM
8,CC[C@H](C)[C@@H]1NC(=O)[C@H](C)N(C)C(=O)C[C@@H](C(=O)N2CCCCC2)N(C)C(=O)[C@H](C(C)C)N(C)C(=O)C2(CCCC2)NC(=O)[C@H](Cc2ccc(F)cc2)N(C)C(=O)[C@H](CCc2ccc(C(F)(F)F)c(Cl)c2)NC(=O)CN(C)C(=O)[C@H](CC2CCCCC2)N(C)C(=O)CN(C)C(=O)CN(C)C1=O [Compound 821] ([NMeA]I[Sar][Sar][NMeCha][Sar][hPhe(3-Cl-4-CF3)][NMePhe(4-F)][Ac5c][NMeV][NMeD]-Piperidide; lactam N-11),12 nM
9,CC[C@H](C)[C@@H]1NC(=O)[C@H](C)N(C)C(=O)C[C@@H](C(=O)N2CCCCC2)N(C)C(=O)[C@H](C(C)C)N(C)C(=O)[C@H](CC(C)C)NC(=O)[C@H](CC(=O)N2CCC(F)(F)CC2)N(C)C(=O)[C@H](CCc2ccc(C(F)(F)F)c(Cl)c2)NC(=O)CN(C)C(=O)[C@H](CC2CCCCC2)N(C)C(=O)CN(C)C(=O)CN(C)C1=O [Compound 826] ([NMeA]I[Sar][Sar][NMeCha][Sar][hPhe(3-Cl-4-CF3)][NMeD](N(CH2CH2)2CF2)L[NMeV][NMeD]-Piperidide; lactam N-11),110 nM
10,CC[C@H](C)[C@@H]1NC(=O)[C@H](C)N(C)C(=O)C[C@@H](C)NC(=O)[C@H](C2CCCC2)N(C)C(=O)C2(CCCC2)NC(=O)[C@@H]2CCCN2C(=O)[C@H](CCc2ccc(C(F)(F)F)c(Cl)c2)NC(=O)[C@@H](C)N(C)C(=O)[C@H](Cc2cccc(F)c2)N(C)C(=O)CN(C)C(=O)CN(C)C1=O [Compound 830] (cyclo([Ac5c][NMeGly(cPent)][d(β3hA)][NMeA]I[Sar][Sar][NMePhe(3-F)][dNMeA][hPhe(3-Cl-4-CF3)]P)),280 nM
11,CC[C@H](C)[C@@H]1NC(=O)[C@H](C)N(C)C(=O)C[C@@H](C)NC(=O)[C@H](C(C)C)N(C)C(=O)C2(CCCC2)NC(=O)[C@@H]2CCCN2C(=O)[C@H](CCc2ccc(C(F)(F)F)c(Cl)c2)NC(=O)[C@@H](C)N(C)C(=O)[C@H](CC2CCCCC2)N(C)C(=O)[C@@H]2CCN2C(=O)[C@H](C)N(C)C1=O [Compound 831] (cyclo([Ac5c][NMeV][d(β3hA)][NMeA]I[NMeA][Aze][NMeCha][dNMeA][hPhe(3-Cl-4-CF3)]P)),180 nM
12,"CC[C@H](C)[C@@H]1NC(=O)[C@H](CC(C)C)N(C)C(=O)C[C@@H](C)N(C)C(=O)[C@H]([C@@H](C)CC)N(C)C(=O)C2(CCC2)NC(=O)[C@@H]2CC(F)(F)CN2C(=O)[C@H](CCc2ccc(C(F)(F)F)c(Cl)c2)NC(=O)CN(C)C(=O)[C@H](Cc2ccc(C(F)(F)F)cc2)N(CC)C(=O)[C@@H]2CCN2C(=O)[C@H](C)N(C)C1=O [Compound 833] (cyclo([Ac4c][NMeI][NMedβ3hAla][NMeL]I[NMeA][Aze][NEtPhe(4-CF3)][Sar][hPhe(3-Cl-4-CF3)][Pro(4,4-F2)]))",9.1 nM
13,CC[C@H](C)[C@@H]1NC(=O)[C@H](C)N(C)C(=O)C[C@@H](C)NC(=O)[C@H](C(C)C)N(C)C(=O)C2(CCCC2)NC(=O)[C@@H]2CCCN2C(=O)[C@H](CCc2ccc(C(F)(F)F)c(Cl)c2)NC(=O)[C@H]2CCCCN2C(=O)[C@H](CC2CCCCC2)N(C)C(=O)[C@@H]2CCCN2C(=O)CN(C)C1=O [Compound 834] (cyclo([Ac5c][NMeV][d(β3hA)][NMeA]I[Sar]P[NMeCha][dPip][hPhe(3-Cl-4-CF3)]P)),57 nM
